Emax and DC50 data for 28 compounds are collected here from ChEMBL document CHEMBL5321293, “Discovery of ERD-3111 as a Potent and Orally Efficacious Estrogen Receptor PROTAC Degrader with Strong Antitumor Activity” (J Med Chem, 2023).

Where only a bound is given, the exact number is not on record here.

Broadly, the Emax is the maximal effect, on the per cent scale that the assay sets. What is called DC50 is the concentration at which degradation of the target reaches its halfway point.

Assay [1] has as its target T1, Protein cereblon/Estrogen receptor (Homo sapiens, UniProt P03372+Q96SW2). Description: Protac activity at human ERalpha in human MCF7 cells assessed as induction of ERalpha degradation by measuring maximum efficacy at 1 uM incubated for 12 hrs by ICW blot assay relative to control. It is filed as cell-based.
Target sequence in this assay (P03372 whole entry, looked up): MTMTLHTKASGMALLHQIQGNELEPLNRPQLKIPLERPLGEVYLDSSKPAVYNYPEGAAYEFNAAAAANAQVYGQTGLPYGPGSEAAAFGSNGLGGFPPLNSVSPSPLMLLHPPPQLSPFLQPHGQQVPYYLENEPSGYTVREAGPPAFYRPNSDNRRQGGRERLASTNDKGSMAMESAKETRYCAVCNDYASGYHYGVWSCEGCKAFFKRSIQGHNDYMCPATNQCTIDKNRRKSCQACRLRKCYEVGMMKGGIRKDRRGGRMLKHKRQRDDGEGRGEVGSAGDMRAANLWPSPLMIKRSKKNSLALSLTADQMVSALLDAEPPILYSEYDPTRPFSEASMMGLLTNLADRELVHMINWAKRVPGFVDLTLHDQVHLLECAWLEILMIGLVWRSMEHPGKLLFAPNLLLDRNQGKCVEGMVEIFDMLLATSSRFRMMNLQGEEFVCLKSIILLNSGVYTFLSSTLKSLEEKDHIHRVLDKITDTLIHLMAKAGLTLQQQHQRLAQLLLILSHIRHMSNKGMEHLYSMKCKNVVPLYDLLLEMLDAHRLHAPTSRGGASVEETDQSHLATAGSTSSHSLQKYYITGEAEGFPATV
Target sequence in this assay (Q96SW2 whole entry, looked up): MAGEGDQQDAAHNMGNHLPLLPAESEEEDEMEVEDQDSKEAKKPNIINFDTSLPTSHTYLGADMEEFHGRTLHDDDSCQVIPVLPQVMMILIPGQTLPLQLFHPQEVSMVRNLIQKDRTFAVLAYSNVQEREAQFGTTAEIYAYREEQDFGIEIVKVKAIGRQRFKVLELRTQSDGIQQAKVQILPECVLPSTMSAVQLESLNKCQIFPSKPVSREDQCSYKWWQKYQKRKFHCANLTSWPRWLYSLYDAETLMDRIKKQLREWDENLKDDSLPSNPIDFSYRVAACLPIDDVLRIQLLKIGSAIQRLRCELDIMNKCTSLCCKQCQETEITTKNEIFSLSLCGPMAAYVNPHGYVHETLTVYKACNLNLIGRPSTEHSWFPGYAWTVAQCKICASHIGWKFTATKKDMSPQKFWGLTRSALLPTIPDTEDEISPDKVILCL
Assay [2] concerns the target T1, Protein cereblon/Estrogen receptor. Description: Protac activity at human ERalpha in human MCF7 cells assessed as protein degradation incubated for 12 hrs by ICW blot assay. It counts as cell-based.
Target sequence in this assay (P03372 whole entry): as the sequence (P03372 whole entry, looked up) above
Target sequence in this assay (Q96SW2 whole entry): as the sequence (Q96SW2 whole entry, looked up) above

`O=C1CCC(N2C(=O)c3cc4c(cc3C2=O)CN(CC(=O)N2CCC3(CCN(c5ccc([C@@H]6c7ccc(O)cc7CC[C@@H]6c6ccccc6)cc5)CC3)C2)C4)C(=O)N1` (stereo partly specified): in assay [1], the Emax worked out at 75%. In addition, the DC50 in assay [2] is 4.6 nM.

`O=C1CCC(N2C(=O)c3cc4c(cc3C2=O)CN(CC2CCN(C(=O)C3CCN(c5ccc([C@@H]6c7ccc(O)cc7CC[C@@H]6c6ccccc6)cc5)CC3)CC2)C4)C(=O)N1` (stereo partly specified): in assay [1], the Emax is 76%. For the same compound, the DC50 in assay [2] was found to be 13 nM.

On to `O=C1CCC(N2C(=O)c3cc4c(cc3C2=O)CN(CC(=O)N2CCCC3(CCN(c5ccc([C@@H]6c7ccc(O)cc7CC[C@@H]6c6ccccc6)cc5)CC3)C2)C4)C(=O)N1` (stereo partly specified), for which the Emax in assay [1] was determined as 58%. The DC50 in assay [2] turned out to be 393 nM.

For the compound `O=C1CCC(N2C(=O)c3cc4c(cc3C2=O)CN(C(=O)CN2CCC3(CC2)CCN(c2ccc([C@@H]5c6ccc(O)cc6CC[C@@H]5c5ccccc5)cc2)CC3)C4)C(=O)N1` (stereo partly specified), the Emax in assay [1] amounted to 16%. The DC50 in assay [2] was greater than 1000 nM.

Take `O=C1CCC(N2C(=O)c3cc4c(cc3C2=O)CN(CC(=O)N2CC3(C2)CN(c2ccc([C@@H]5c6ccc(O)cc6CC[C@@H]5c5ccccc5)cc2)C3)C4)C(=O)N1` (stereo partly specified): the Emax in assay [1] stood at 65%. The DC50 in assay [2] is 11 nM.

As for `O=C1CCC(N2C(=O)c3cc4c(cc3C2=O)CN(CC2CN(CC3CCN(c5ccc([C@@H]6c7ccc(O)cc7CC[C@@H]6c6ccccc6)cc5)CC3)C2)C4)C(=O)N1` (stereo partly specified), in assay [1], the Emax turned out to be 59%. The DC50 in assay [2] is 21 nM.

For `C[C@@H]1Cc2c(ccc3[nH]ncc23)[C@@H](c2c(F)cc(N3CCC4(CCN(C(=O)CN5Cc6cc7c(cc6C5)C(=O)N(C5CCC(=O)NC5=O)C7=O)CC4)CC3)cc2F)N1CC(F)(F)F` (stereo partly specified), in assay [1], the Emax was determined as 88%. The DC50 in assay [2] turned out to be 2 nM.

For `O=C1CCC(N2C(=O)c3cc4c(cc3C2=O)CN(CC2CCN(CC3CN(c5ccc([C@@H]6c7ccc(O)cc7CC[C@@H]6c6ccccc6)cc5)C3)CC2)C4)C(=O)N1` (stereo partly specified), the Emax in assay [1] came to 64%. The DC50 in assay [2] was found to be 19 nM.

Take `O=C1CCC(N2C(=O)c3cc4c(cc3C2=O)CN(C(=O)C2CCN(CC3CN(c5ccc([C@@H]6c7ccc(O)cc7CC[C@@H]6c6ccccc6)cc5)C3)CC2)C4)C(=O)N1` (stereo partly specified): the Emax in assay [1] came to 40%. The DC50 in assay [2] is greater than 1000 nM.

`O=C1CCC(N2C(=O)c3cc4c(cc3C2=O)CN(CC2CCN(c3ccc([C@@H]5c6ccc(O)cc6CC[C@@H]5c5ccccc5)cc3)CC2)C4)C(=O)N1` (stereo partly specified): in assay [1], the maximal response (Emax) stood at 65%. Also, the DC50 in assay [2] was 415 nM.

Regarding `O=C1CCC(N2C(=O)c3cc4c(cc3C2=O)CN(CCCCCC2CCN(c3ccc([C@@H]5c6ccc(O)cc6CC[C@@H]5c5ccccc5)cc3)CC2)C4)C(=O)N1` (stereo partly specified), in assay [1], the Emax amounted to 106%. The DC50 in assay [2] worked out at 31 nM.

For the compound `COc1cc(N2CCC3(CCN(C(=O)CN4Cc5cc6c(cc5C4)C(=O)N(C4CCC(=O)NC4=O)C6=O)CC3)CC2)ccc1[C@@H]1c2ccc3[nH]ncc3c2C[C@@H](C)N1CC(F)F` (stereo partly specified), in assay [1], the Emax amounted to 82%. Moreover, the DC50 in assay [2] was 1.4 nM.

As to `O=C1CCC(N2C(=O)c3cc4c(cc3C2=O)CN(C2CCN(CC3CN(c5ccc([C@@H]6c7ccc(O)cc7CC[C@@H]6c6ccccc6)cc5)C3)CC2)C4)C(=O)N1` (stereo partly specified), the Emax in assay [1] was found to be 57%. Moreover, the 50% degradation concentration (DC50) in assay [2] amounted to 295 nM.

Take `O=C1CCC(N2C(=O)c3cc4c(cc3C2=O)CN(C(=O)C2CCN(CC3CCN(c5ccc([C@@H]6c7ccc(O)cc7CC[C@@H]6c6ccccc6)cc5)CC3)CC2)C4)C(=O)N1` (stereo partly specified): in assay [1], the Emax was 63%. Besides, the DC50 in assay [2] was determined as 9.7 nM.

On to `O=C1CCC(N2C(=O)c3cc4c(cc3C2=O)CN(CC(=O)N2CCC3(CC2)CCN(c2ccc([C@H]5c6ccc(O)cc6CC[C@H]5c5ccccc5)cc2)C3)C4)C(=O)N1` (single isomer, unassigned), for which the Emax in assay [1] is 58%. For the same compound, in assay [2], the DC50 came out at 18 nM.

Consider `O=C1CCC(N2C(=O)c3cc4c(cc3C2=O)CN(CCCCC2CCN(c3ccc([C@@H]5c6ccc(O)cc6CC[C@@H]5c5ccccc5)cc3)CC2)C4)C(=O)N1` (stereo partly specified), for which the Emax in assay [1] was found to be 67%. For the same compound, the DC50 in assay [2] is 236 nM.

`O=C1CCC(N2C(=O)c3cc4c(cc3C2=O)CN(CC(=O)N2CC3(CCN(c5ccc([C@@H]6c7ccc(O)cc7CC[C@@H]6c6ccccc6)cc5)CC3)C2)C4)C(=O)N1` (stereo partly specified): the Emax in assay [1] amounted to 71%. Further, the DC50 in assay [2] was found to be 2.8 nM.

Turning to `O=C1CCC(N2C(=O)c3cc4c(cc3C2=O)CN(CCC2CCN(c3ccc([C@@H]5c6ccc(O)cc6CC[C@@H]5c5ccccc5)cc3)CC2)C4)C(=O)N1` (stereo partly specified), the Emax in assay [1] was determined as 50%. In addition, the DC50 in assay [2] amounted to 1000 nM.

In the case of `O=C1CCC(N2C(=O)c3cc4c(cc3C2=O)CN(CC2CN(C(=O)C3CCN(c5ccc([C@@H]6c7ccc(O)cc7CC[C@@H]6c6ccccc6)cc5)CC3)C2)C4)C(=O)N1` (stereo partly specified), in assay [1], the Emax was 84%. The DC50 in assay [2] amounted to 6 nM.

Regarding `O=C1CCC(N2C(=O)c3cc4c(cc3C2=O)CN(CC(=O)N2CC3(CCN(c5ccc([C@@H]6c7ccc(O)cc7CC[C@@H]6c6ccccc6)cc5)C3)C2)C4)C(=O)N1` (stereo partly specified), the maximal response (Emax) in assay [1] came out at 63%. Besides, the DC50 in assay [2] turned out to be 4 nM.

For `O=C1CCC(N2C(=O)c3cc4c(cc3C2=O)CN(CCCC2CCN(c3ccc([C@@H]5c6ccc(O)cc6CC[C@@H]5c5ccccc5)cc3)CC2)C4)C(=O)N1` (stereo partly specified), the Emax in assay [1] was found to be 79%. The DC50 in assay [2] amounted to 171 nM.

With `O=C1CCC(N2C(=O)c3cc4c(cc3C2=O)CN(CC(=O)N2CCC3(CC2)CN(c2ccc([C@@H]5c6ccc(O)cc6CC[C@@H]5c5ccccc5)cc2)C3)C4)C(=O)N1` (stereo partly specified), in assay [1], the Emax was found to be 68%. The DC50 in assay [2] was 1.8 nM.

For the compound `O=C1CCC(N2C(=O)c3cc4c(cc3C2=O)CN(CCCCCCC2CCN(c3ccc([C@@H]5c6ccc(O)cc6CC[C@@H]5c5ccccc5)cc3)CC2)C4)C(=O)N1` (stereo partly specified), the Emax in assay [1] was 101%. In addition, the DC50 in assay [2] came out at 129 nM.

Regarding `O=C1CCC(N2C(=O)c3cc4c(cc3C2=O)CN(CC2CCN(C(=O)C3CN(c5ccc([C@@H]6c7ccc(O)cc7CC[C@@H]6c6ccccc6)cc5)C3)CC2)C4)C(=O)N1` (stereo partly specified), the maximal effect (Emax) in assay [1] was 87%. Moreover, the DC50 in assay [2] is 32 nM.

As for `O=C1CCC(N2C(=O)c3cc4c(cc3C2=O)CN(C2CN(CC3CCN(c5ccc([C@@H]6c7ccc(O)cc7CC[C@@H]6c6ccccc6)cc5)CC3)C2)C4)C(=O)N1` (stereo partly specified), the Emax in assay [1] worked out at 50%. In addition, the DC50 in assay [2] amounted to 989 nM.

Consider `C[C@@H]1Cc2c(ccc3[nH]ncc23)[C@@H](c2ccc(N3CCC4(CCN(C(=O)CN5Cc6cc7c(cc6C5)C(=O)N(C5CCC(=O)NC5=O)C7=O)CC4)CC3)cn2)N1CC(F)F` (stereo partly specified), for which, in assay [1], the Emax came to 112%. The DC50 in assay [2] is 14 nM.

In the case of `O=C1CCC(N2C(=O)c3cc4c(cc3C2=O)CN(CC(=O)N2CCC3(C2)CN(c2ccc([C@@H]5c6ccc(O)cc6CC[C@@H]5c5ccccc5)cc2)C3)C4)C(=O)N1` (stereo partly specified), the Emax in assay [1] was determined as 23%. For the same compound, in assay [2], the DC50 was greater than 1000 nM.

With `O=C1CCC(N2C(=O)c3cc4c(cc3C2=O)CN(C2CCN(c3ccc([C@@H]5c6ccc(O)cc6CC[C@@H]5c5ccccc5)cc3)CC2)C4)C(=O)N1` (stereo partly specified), the Emax in assay [1] amounted to 32%. In assay [2], the DC50 is greater than 1000 nM.
